# Source: US9670227B2, “Thienopyrimidine derivatives, a process for their preparation and pharmaceutical compositions containing them” (LES LABORATOIRES SERVIER, priority 2013, dated 2017)
# Read-outs that look alike come from different tables or passages of the source.
# How the values were obtained:
# Mcl-1 protein = Mcl-1 protein (UniProtKB primary accession number: Q07820) (Homo sapiens, UniProt Q07820); assay: Inhibition of Mcl-1 by fluorescence polarisation, Method 1; format: binding; conditions: read-out: IC50 (M) Mcl-1 FP
# Method in brief: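 Binding was measured as fluorescence polarisation of a fluorescein-labelled ligand (1 nM) displaced from Mcl-1 (5 nM), both final. Compounds ran as 11-point series with final DMSO at 5%.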
# [1] = system: H929 multiple myeloma tumour line; assay: In vitro cytotoxicity, Microculture Tetrazolium Assay; format: cell-based; conditions: H929 cells, 48 hours exposure, read-out: IC50 (μM) MTT H929
# Protocol: The cytotoxicity studies were carried out on the H929 multiple myeloma tumour line.
# The cells are distributed onto microplates and exposed to the test compounds for 48 hours.
# [2] = system: AMO-1 multiple myeloma cells; assay: Quantification of the cleaved form of PARP in vivo (MSD ELISA, tumour lysates); set-up: species or system mice (SCID strain); conditions: activation factor: cleaved PARP in treated mice / control mice, AMO-1 xenograft in SCID mice, intraveinous or oral routes
# Method in brief: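 SCID mice bearing subcutaneous AMO-1 xenografts (1.10^7 cells) dosed intravenously or orally 12 to 14 days after grafting. Cleaved PARP in tumour lysates measured by MSD ELISA. Reported as activation factor, the ratio of treated to control cleaved PARP.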
# [3] = fluorescence polarisation, Method 1, or Method 2
# [4] = Homo sapiens, NCI-H929, 48 h, MTT
# [5] = fluorescence polarisation test, Method 1, or Method 2 where the value is underlined (underlining not visible)
# [6] = Homo sapiens, NCI-H929, 48 h, cell viability
# Chain of Mcl-1 protein (Q07820 whole entry): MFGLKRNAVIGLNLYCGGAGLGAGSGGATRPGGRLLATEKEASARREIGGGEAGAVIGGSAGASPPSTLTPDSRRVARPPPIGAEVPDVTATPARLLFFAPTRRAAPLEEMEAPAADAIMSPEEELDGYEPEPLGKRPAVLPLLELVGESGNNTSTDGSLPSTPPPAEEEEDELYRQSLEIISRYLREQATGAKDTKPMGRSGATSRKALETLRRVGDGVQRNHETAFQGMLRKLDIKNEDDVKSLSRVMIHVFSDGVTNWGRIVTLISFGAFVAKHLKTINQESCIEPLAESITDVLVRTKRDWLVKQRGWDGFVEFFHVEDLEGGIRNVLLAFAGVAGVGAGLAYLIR
IC50 (Mcl-1 protein; [3]) [M],IC50 (Mcl-1 protein; [5]) [M],SMILES,"IC50 [1, 4] [µM]",PARP fold [2] [fold],IC50 ([1]; MTT) [µM],"IC50 [1, 6] [µM]"
9.48e-10,,"COc1ccccc1-c1nccc(COc2ccccc2CC(Oc2ncnc3sc(C#CCCc4ccccc4)c(-c4ccc(OCCN5CCN(C)CC5)c(Cl)c4C)c23)C(=O)O)n1 [Example 781, (2R)-2-{[(5Sa)-5-{3-chloro-2-methyl-4-[2-(4-methylpiperazin-1-yl)ethoxy]phenyl}-6-(4-phenylbut-1-yn-1-yl)thieno[2,3-d]pyrimidin-4-yl]oxy}-3-(2-{[2-(2-methoxyphenyl)pyrimidin-4-yl]methoxy}phenyl)propanoic acid]",0.033,113.3,,
4.71e-07,,"COC(=O)C(Cc1ccccc1OCc1ccnc(-c2ccccc2OC)n1)Oc1ncnc2sc(-c3ccc(F)cc3)c(-c3ccc(OCCN4CCN(C)CC4)c(Cl)c3C)c12 [Example 787, methyl (2R)-2-{[(5Sa)-5-{3-chloro-2-methyl-4-[2-(4-methylpiperazin-1-yl)ethoxy]phenyl}-6-(4-fluorophenyl)thieno[2,3-d]pyrimidin-4-yl]oxy}-3-(2-{[2-(2-methoxyphenyl)pyrimidin-4-yl]methoxy}phenyl)propanoate]",0.245,131.5,,
6.74e-07,,"COc1ccccc1-c1nccc(COc2ccccc2CC(Oc2ncnc3sc(-c4ccc(F)cc4)c(-c4ccc(OCCN5CCN(C)CC5)c(Cl)c4C)c23)C(=O)OC(C)C)n1 [Example 788, propan-2-yl (2R)-2-{[(5Sa)-5-{3-chloro-2-methyl-4-[2-(4-methylpiperazin-1-yl)ethoxy]phenyl}-6-(4-fluorophenyl)thieno[2,3-d]pyrimidin-4-yl]oxy}-3-(2-{[2-(2-methoxyphenyl)pyrimidin-4-yl]methoxy}phenyl)propanoate]",0.494,144.8,,
3.82e-07,,"COCCOC(=O)C(Cc1ccccc1OCc1ccnc(-c2ccccc2OC)n1)Oc1ncnc2sc(-c3ccc(F)cc3)c(-c3ccc(OCCN4CCN(C)CC4)c(Cl)c3C)c12 [Example 789, 2-methoxyethyl (2R)-2-{[(5Sa)-5-{3-chloro-2-methyl-4-[2-(4-methylpiperazin-1-yl)ethoxy]phenyl}-6-(4-fluorophenyl)thieno[2,3-d]pyrimidin-4-yl]oxy}-3-(2-{[2-(2-methoxyphenyl)pyrimidin-4-yl]methoxy}phenyl)propanoate]",0.206,135.2,,
,1.72e-07,"COc1ccccc1-c1nccc(COc2ccccc2CC(Oc2ncnc3sc(-c4ccc(F)cc4)c(-c4ccc(OCCN5CCN(C)CC5)c(Cl)c4C)c23)C(=O)OCC(F)(F)F)n1 [Example 808, 2,2,2-trifluoroethyl (2R)-2-{[(5Sa)-5-{3-chloro-2-methyl-4-[2-(4-methylpiperazin-1-yl)ethoxy]phenyl}-6-(4-fluorophenyl)thieno[2,3-d]pyrimidin-4-yl]oxy}-3-(2-{[2-(2-methoxyphenyl)pyrimidin-4-yl]methoxy}phenyl)propanoate]",,155,,0.01
,4.2e-07,"COc1ccccc1-c1nccc(COc2ccccc2CC(Oc2ncnc3sc(-c4ccc(F)cc4)c(-c4ccc(OCCN5CCN(C)CC5)c(Cl)c4C)c23)C(=O)OCOC(=O)C(C)(C)C)n1 [Example 810, {[(2R)-2-{[(5Sa)-5-{3-chloro-2-methyl-4-[2-(4-methylpiperazin-1-yl)ethoxy]phenyl}-6-(4-fluorophenyl)thieno[2,3-d]pyrimidin-4-yl]oxy}-3-(2-{[2-(2-methoxyphenyl)pyrimidin-4-yl]methoxy}phenyl)propanoyl]oxy}methyl 2,2-dimethylpropanoate]",,122.4,,0.001

# Continued, molecule first:
SMILES,IC50 (Mcl-1 protein; [3]) [M],IC50 (Mcl-1 protein; [5]) [M],"IC50 [1, 4] [µM]",PARP fold [2] [fold],IC50 ([1]; MTT) [µM],"IC50 [1, 6] [µM]"
"COc1ccc(-c2nccc(COc3ccccc3CC(Oc3ncnc4sc(-c5ccc(F)cc5)c(-c5ccc(OCCN6CCN(C)CC6)c(Cl)c5C)c34)C(=O)O)n2)c(C(F)(F)F)c1 [Example 729, (2R)-2-{[(5Sa)-5-{3-chloro-2-methyl-4-[2-(4-methylpiperazin-1-yl)ethoxy]phenyl}-6-(4-fluorophenyl)thieno[2,3-d]pyrimidin-4-yl]oxy}-3-[2-({2-[4-methoxy-2-(trifluoromethyl)phenyl]pyrimidin-4-yl}methoxy)phenyl]propanoic acid]",1.24e-09,,0.009,221,,
"Cc1cc(-c2nccc(COc3ccccc3CC(Oc3ncnc4sc(-c5ccc(F)cc5)c(-c5ccc(OCCN6CCN(C)CC6)c(Cl)c5C)c34)C(=O)O)n2)c(C)cn1 [Example 731, (2R)-2-{[(5Sa)-5-{3-chloro-2-methyl-4-[2-(4-methylpiperazin-1-yl)ethoxy]phenyl}-6-(4-fluorophenyl)thieno[2,3-d]pyrimidin-4-yl]oxy}-3-(2-{[2-(2,5-dimethylpyridin-4-yl)pyrimidin-4-yl]methoxy}phenyl)propanoic acid]",9.48e-10,,0.005,175.5,,
"CCc1c(-c2c(-c3ccc(F)cc3)sc3ncnc(O[C@H](Cc4ccccc4OCc4ccnc(-c5ccccc5OC)n4)C(=O)O)c23)ccc(OCCN2CCN(C)CC2)c1Cl [Example 741, (2R)-2-{[(5Sa)-5-{3-chloro-2-ethyl-4-[2-(4-methylpiperazin-1-yl)ethoxy]phenyl}-6-(4-fluorophenyl)thieno[2,3-d]pyrimidin-4-yl]oxy}-3-(2-{[2-(2-methoxyphenyl)pyrimidin-4-yl]methoxy}phenyl)propanoic acid]",9.48e-10,,,244,0.002,
"COc1ccccc1-c1nccc(COc2ccccc2CC(Oc2ncnc3sc(-c4ccc(F)cc4)c(-c4ccc(OCCN5CCN(C)CC5)c(Cl)c4Br)c23)C(=O)O)n1 [Example 742, (2R)-2-{[(5Sa)-5-{2-bromo-3-chloro-4-[2-(4-methylpiperazin-1-yl)ethoxy]phenyl}-6-(4-fluorophenyl)thieno[2,3-d]pyrimidin-4-yl]oxy}-3-(2-{[2-(2-methoxyphenyl)pyrimidin-4-yl]methoxy}phenyl)propanoic acid]",9.48e-10,,0.002,267.2,,
"COc1ccccc1-c1nccc(COc2ccccc2CC(Oc2ncnc3sc(-c4ccc(F)cc4)c(-c4ccc(OCCN5CCN(C)CC5)c(Cl)c4Cl)c23)C(=O)O)n1 [Example 743, (2R)-2-{[(5Sa)-5-{2,3-dichloro-4-[2-(4-methylpiperazin-1-yl)ethoxy]phenyl}-6-(4-fluorophenyl)thieno[2,3-d]pyrimidin-4-yl]oxy}-3-(2-{[2-(2-methoxyphenyl)pyrimidin-4-yl]methoxy}phenyl)propanoic acid]",9.48e-10,,0.005,147.3,,
"Cc1c(-c2c(-c3ccc(F)cc3)sc3ncnc(OC(Cc4ccccc4OCc4ccnn4C(C)(C)C)C(=O)O)c23)ccc(OCCN(C)C)c1Cl [Example 750, (2R)-3-{2-[(1-tert-butyl-1H-pyrazol-5-yl)methoxy]phenyl}-2-{[(5Sa)-5-{3-chloro-4-[2-(dimethylamino)ethoxy]-2-methylphenyl}-6-(4-fluorophenyl)thieno[2,3-d]pyrimidin-4-yl]oxy}propanoic acid]",1.33e-09,,0.035,181.6,,
"Cc1c(-c2c(-c3ccc(F)cc3)sc3ncnc(OC(Cc4ccccc4OCc4ccnc(-c5ccccc5F)n4)C(=O)O)c23)ccc(OCCN(C)C)c1Cl [Example 757, (2R)-2-{[(5Sa)-5-{3-chloro-4-[2-(dimethylamino)ethoxy]-2-methylphenyl}-6-(4-fluorophenyl)thieno[2,3-d]pyrimidin-4-yl]oxy}-3-(2-{[2-(2-fluorophenyl)pyrimidin-4-yl]methoxy}phenyl)propanoic acid]",3.95e-09,,0.013,135.6,,
"COc1ccccc1-c1nccc(COc2ccccc2CC(Oc2ncnc3sc(-c4ccc(OCc5ccccc5)cc4)c(-c4ccc(OCCN5CCN(C)CC5)c(Cl)c4C)c23)C(=O)O)n1 [Example 762, (2R)-2-[(6-[4-(benzyloxy)phenyl]-(5Sa)-5-{3-chloro-2-methyl-4-[2-(4-methylpiperazin-1-yl)ethoxy]phenyl}thieno[2,3-d]pyrimidin-4-yl)oxy]-3-(2-{[2-(2-methoxyphenyl)pyrimidin-4-yl]methoxy}phenyl)propanoic acid]",1.88e-09,,0.014,136.9,,
"COc1ccccc1-c1nccc(COc2ccccc2CC(Oc2ncnc3sc(-c4ccc(OCc5ccncc5)cc4)c(-c4ccc(OCCN5CCN(C)CC5)c(Cl)c4C)c23)C(=O)O)n1 [Example 774, (2R)-2-[((5Sa)-5-{3-chloro-2-methyl-4-[2-(4-methylpiperazin-1-yl)ethoxy]phenyl}-6-[4-(pyridin-4-ylmethoxy)phenyl]thieno[2,3-d]pyrimidin-4-yl)oxy]-3-(2-{[2-(2-methoxyphenyl)pyrimidin-4-yl]methoxy}phenyl)propanoic acid]",9.48e-10,,0.009,104.8,,
